From patent US20250064799A1, “ORAL FORMULATIONS OF LEVOSIMENDAN FOR TREATING PULMONARY HYPERTENSION WITH HEART FAILURE WITH PRESERVED EJECTION FRACTION” (Tenax Therapeutics, Inc., priority 2021, published 2025)
Several values for one entry are separate records, joined by “and”; a condition that tells them apart may be missing. Identical values can stand only once.

Assays:
[1] = tested on: phosphodiesterase-3 (PDE3); details: in vitro; cited from earlier work
patients with PH-HFpEF [2] = assay: Six-minute walk test (6MWT/6MWD), I.V. to oral levosimendan transition study (TNX-LVO-05 open label extension of HELP); format: in vivo, human
Excerpt: The initial HELP Study is described in PCT International Application Publication No. WO 2021/126884 and Burkhoff, et al. (2021) “Levosimendan improves hemodynamics and exercise tolerance in PH-HFpEF: results of the randomized placebo-controlled HELP trial,” the entire contents of each of which are incorporated by reference. […] Among the goals of the extension study was to determine the dose of oral levosimendan that could maintain the efficacy of the weekly I.V. infusions of levosimendan.
Once that dose is determined, the study is identical with respect to the protocol. Since the I.V. formulation is weight based, and bypasses issues of bioavailability that may be affected by drug absorption, a dose escalation strategy is being adopted, guided by the individual patient response and any adverse events that may occur. Thus, the measurement of a six-minute walk test and patient questionnaire before and after the transition was to ensure that the patient continues to benefit. In addition, the monitoring of the patients' blood pressure and heart rate each day was to ensure that the oral dose remains safe.
The following considerations justified amending the TNX-LVO-05 study protocol: • 1. The amended TNX-LVO-05 protocol included the same patients enrolled in the original study. This was not a new study of the patients currently enrolled. This was open label, with no blinding of patients or physicians, and no control group. • 2. The scope and purpose of the study was unchanged, with the exception that it offered the further extension of treatment allowed by the transition to oral therapy (See item #4). • 3. The amendment clearly delineated a stepwise and thoughtful titration of patients from their intravenous to oral levosimendan to ensure the safe and effective transition of their levosimendan regimen. • a. Patients were started on 1 mg daily, representing a dose generally less than half their total weekly weight-based dose regimen. • b. Patients were titrated based on tolerance to the daily levosimendan paying attention to their symptoms of PH-HFpEF, and special attention to specific adverse events of interest, heart rate and blood pressure. A daily diary captured patient vitals and symptoms to aid their physician in titrating patients at two-week intervals. • c. Patient response also was evaluated by clinical measures to provide the physician with additional information on the patient's response. • d. While most patients were expected to receive 2-3 mg daily at the conclusion of the transition study, the dose escalation strategy was included to allow all patients to realize the same benefit as they did from the I.V. formulation. • e. To document the sustained efficacy of the oral formulation in these patients, patients had to undergo a six-minute walk test and patient questionnaire prior to and at the end of the transition study. • 4. The transition to oral levosimendan allowed for extension of the study from its initial two years to an additional three years. This offers these PH-HFpEF patients, with no other treatments available, to continue on a drug that they have responded to. • 5. The amendment required patients to sign a revised informed consent to ensure patients are completely informed concerning the transition amendment. Patients that preferred to continue with their weekly 24-hour I.V. regimen were allowed to continue through the initial two-year period of the study and then will be withdrawn.
Methods: Patients with PH-HFpEF who were in the open label extension study of the HELP Trial for more than 18 months volunteered to enroll in this transition protocol. Patients were initiated with 1 mg/day of oral levosimendan 5-7 days after the last IV levosimendan infusion. The oral dose was increased every 2 weeks by 1 mg/day to a maximum of 4 mg/day over an 8 week period. The highest daily dose was determined by the investigator based on clinical assessments of symptoms and side effects. […]

patients with PH-HFpEF [3] = assay: Kansas City Cardiomyopathy Questionnaire (KCCQ), I.V. to oral levosimendan transition study; format: in vivo, human
Procedure: Methods: Patients with PH-HFpEF who were in the open label extension study of the HELP Trial for more than 18 months volunteered to enroll in this transition protocol. Patients were initiated with 1 mg/day of oral levosimendan 5-7 days after the last IV levosimendan infusion. The oral dose was increased every 2 weeks by 1 mg/day to a maximum of 4 mg/day over an 8 week period. The highest daily dose was determined by the investigator based on clinical assessments of symptoms and side effects. The primary safety endpoints were change in resting heart rate and blood pressure from baseline to final study visit and all other adverse events. Secondary efficacy endpoints included change in six-minute walk distance (6MWD), serum brain natriuretic peptide (BNP) or NT-proBNP levels, and quality of life as assessed by Kansas City Cardiomyopathy Questionnaire clinical summary score (KCCQ-CS) and overall summary score (KCCQ-OS) from baseline to final study visit. All comparisons were the baseline and at week 6-8 measurements at the highest daily dose of levosimendan.
• Change in six-minute walk distance (6MWD) from baseline to final study visit • Change in serum brain natriuretic peptide (BNP) or NT-proBNP levels from baseline to final study visit • Change in quality of life as assessed by Kansas City Cardiomyopathy Questionnaire clinical summary score (KCCQ-CS) and overall summary score (KCCQ-OS) from baseline to final study visit
All comparisons were the baseline and at week 6-8 measurements at the highest daily dose of levosimendan.

patients with PH-HFpEF [4] = assay: TNX-LVO-05 open-label extension, weekly 24-hour I.V. levosimendan: 6MWT and HR; format: in vivo, human; parameters: TNX-LVO-05 (WK 24/48) 6MWT: unit not given beside the values; details: individual patients, week 24/48
Excerpt: PH-HFpEF is a progressive, fatal disease for which there are no approved therapies. All patients that the 6-week parent TNX-LVO-04 study (also referred to as the initial Help Study) underwent assessments of safety and efficacy in a double-blind randomized protocol. […] For these reasons, all participating patients were allowed to enter an open-label extension study (also referred to as TNX-LVO-05), to provide ongoing levosimendan therapy for two additional years.
The efficacy of the once weekly levosimendan regimen is supported by an active metabolite with an extended half-life of 70-80 hours. The metabolite peaks approximately two days after completing the weekly dose, declining through the remainder of the week. Data from the parent TNX-LVO-04 study indicate patients' response to therapy peaks early in the week, followed by a decline in keeping with exposure to the active metabolite. Patients that entered TNX-LVO-05 were required to undergo the insertion of a port-a-cath, learn how to self-administer the levosimendan infusion through a port-a-cath at home, and weekly administer IV levosimendan through their port-a-cath for 24 hours. It is important to note that patients who entered TNX-LVO-05 have chosen to continue their 24-hour weekly levosimendan dose regimen, acknowledging that patients recognize the benefits of the drug.

[5] = individual patients transitioned from weekly I.V. to oral levosimendan
[6] = baseline to final visit, oral levosimendan

**Q.** With C[C@@H]1CC(=O)NN=C1c1ccc(NN=C(C#N)C#N)cc1 [levosimendan] as the molecule, how does the PDE3/PDE4 inhibition ratio [1] read?
**A.** The PDE3/PDE4 inhibition ratio was 10,000.

**Q.** What about the “6MW Change (BL vs Week 6 only)” value (patients with PH-HFpEF [2]; [5]) of the same molecule?
**A.** The value was −137 and 78 and −27 and 118 and −10 and −4 and 5 and −9 and −8 and 9 and −17 and 40 and 30 (2×) and 15 and −1.

**Q.** What about the “6MW Change (Baseline vs Week 6/8)” value (patients with PH-HFpEF [2]; [5]) of the same molecule?
**A.** Its value is −15 and 78 and −27 and −10 and −31 and −4 and 24 and −23 and −112 and 9 and −17 and 30 (3×) and −1.

**Q.** And the “6MWD Change from baseline to Week 6 - Oral, Maximum” value (patients with PH-HFpEF [2]; n=16)?
**A.** The value was 118.

**Q.** And the “6MWD Change from baseline to Week 6 - Oral, Median” value (patients with PH-HFpEF [2]; n=16)?
**A.** The value was 2.0.

**Q.** And the “6MWD Change from baseline to Week 6 - Oral, Minimum” value (patients with PH-HFpEF [2]; n=16)?
**A.** The value was −137.

**Q.** What about the 6MWD Week 6 - Oral, Maximum (patients with PH-HFpEF [2]; n=16, oral levosimendan) of the same molecule?
**A.** Its 6MWD Week 6 - Oral, Maximum is 550 m.

**Q.** What about the “6MWD Week 6 - Oral, Mean” value (patients with PH-HFpEF [2]; n=16, oral levosimendan) of the same molecule?
**A.** Its value is 302.0.

**Q.** And the “6MWD Week 6 - Oral, Median” value (patients with PH-HFpEF [2]; n=16, oral levosimendan)?
**A.** Its value is 292.0.

**Q.** And the “6MWD Week 6 - Oral, Minimum” value (patients with PH-HFpEF [2]; n=16, oral levosimendan)?
**A.** Its value is 91.

**Q.** What about the “mean change in 6MWD” value (patients with PH-HFpEF [2]; n=17, baseline to final study visit, oral levosimendan) of the same molecule?
**A.** The value was 13.1 (SD±39.5) meters.

**Q.** What about the “improvement in six minute walk distance” value (patients with PH-HFpEF [2]; oral levosimendan compared to weekly I.V. infusion) of the same molecule?
**A.** The value was 32%.

**Q.** And the “KCCQ OVERALL SUMMARY, mean Δ” value (patients with PH-HFpEF [3]; [6])?
**A.** Its value is “+3.7”.

**Q.** What about the “KCCQ PHYSICAL LIMITATION, mean Δ” value (patients with PH-HFpEF [3]; [6]) of the same molecule?
**A.** Its value is “+0.3”.

**Q.** And the “KCCQ QUALITY OF LIFE, mean Δ” value (patients with PH-HFpEF [3]; [6])?
**A.** The value was “+4.2”.

**Q.** What about the “KCCQ SELF EFFICACY, mean Δ” value (patients with PH-HFpEF [3]; [6]) of the same molecule?
**A.** The value was −2.3.

**Q.** What about the “KCCQ SOCIAL LIMITATION, mean Δ” value (patients with PH-HFpEF [3]; [6]) of the same molecule?
**A.** Its value is “+5.5”.

**Q.** What about the “KCCQ Symptom Burden, mean Δ” value (patients with PH-HFpEF [3]; [6]) of the same molecule?
**A.** Its value is “+6.3”.

**Q.** What about the “KCCQ Symptom Frequency, mean Δ” value (patients with PH-HFpEF [3]; [6]) of the same molecule?
**A.** Its value is “+3.1”.

**Q.** What about the “KCCQ Symptom Stability, mean Δ” value (patients with PH-HFpEF [3]; [6]) of the same molecule?
**A.** Its value is “+9.4”.

**Q.** What about the “KCCQ TOTAL SYMPTOM, mean Δ” value (patients with PH-HFpEF [3]; [6]) of the same molecule?
**A.** The value was “+4.7”.

**Q.** What about the “mean KCCQ-CS score improvement” value (patients with PH-HFpEF [3]; n=16, oral levosimendan) of the same molecule?
**A.** Its value is 2.5 points.

**Q.** What about the “mean KCCQ-OS score improvement” value (patients with PH-HFpEF [3]; n=16, oral levosimendan) of the same molecule?
**A.** The value was 3.7 points.

**Q.** What about the “mean KCCQ-TS score improvement” value (patients with PH-HFpEF [3]; n=16, oral levosimendan) of the same molecule?
**A.** Its value is 4.7 points.

**Q.** What about the “TNX-LVO-05 (WK 24/48) 6MWT” value (patients with PH-HFpEF [4]) of the same molecule?
**A.** Its value is 310 and 180 and 312 and 255 and 347 and 393 and 313 and 91 and 274 and 213 and 225 and 174 and 590.

**Q.** And the “TNX-LVO-05 (WK 24/48) HR” value (patients with PH-HFpEF [4])?
**A.** Its value is 62 (3×) and 64 and 85 (2×) and 70 and 69 and 74 and 58 and 73 and 82 and 75 and 87 and 65 and 78 and 77 and 91.
